From ChEMBL document CHEMBL1148300, “Synthesis and evaluation of oxazaborolidines for antibacterial activity against Streptococcus mutans” (2004)
Converted amounts (≈) assume the structure as drawn.

Each compound was assayed on Streptococcus mutans (assay: Minimal Inhibitory Concentration ofcompound against Streptococcus mutans).
Assay type: functional

Going from `CC1(C)COB(c2ccccc2)N1` to `CC1NB(c2ccccc2)OC1c1ccccc1` (stereo not drawn), the MIC falls from 6 mM (≈ 1050 µg/mL) to 1.33 mM (≈ 315 µg/mL) (4.5-fold).

Going from `CCCCB1OC(c2ccccc2)C(C)N1C` (stereo not drawn) to `CCCCB1NC(C)C(c2ccccc2)O1` (stereo not drawn), the MIC rises from 0.53 mM (≈ 123 µg/mL) to 2.83 mM (≈ 614 µg/mL) (5.3-fold).

Going from `CC1C(c2ccccc2)OB(c2ccccc2)N1C` (stereo not drawn) to `c1ccc([B-]23OCC[NH+]2CCO3)cc1` (stereo not drawn), the MIC rises from 1.55 mM (≈ 389 µg/mL) to 6.75 mM (≈ 1290 µg/mL) (4.4-fold).

Going from `CCCC[B-]12OCC[NH+]1CCO2` (stereo not drawn) to `CCCCB1NC(C)(C)CO1`, the MIC falls from 6.75 mM (≈ 1150 µg/mL) to 3.38 mM (≈ 524 µg/mL) (2-fold).
